Non-standard residues stand in square brackets, D forms with d. *: point of attachment. X6 = ((1S)-1-carboxy-2-hydroxyethyl)carbamoyl, O=C(O)[C@H](CO)NC(=O)*; X5 = tetrahydro‑2H‑pyran‑4‑yl‑carbamoyl, O=C(NC1CCOCC1)*; (2-carboxyethyl)carbamoyl = O=C(O)CCNC(=O)*; (carboxymethyl)carbamoyl = O=C(O)CNC(=O)*; morpholinocarbonyl = O=C(N1CCOCC1)*; hArg = N=C(N)NCCCC[C@H](N)C(=O)O; 4Pal = N[C@@H](Cc1ccncc1)C(=O)O; Cha = N[C@@H](CC1CCCCC1)C(=O)O; Iva = CC[C@](C)(N)C(=O)O; Aib = CC(C)(N)C(=O)O
Tests used:
[1] = test system: male C57BL/6J mouse; assay: 3-Day Continuous Subcutaneous Administration Test-2 (food intake suppressing activity); type: in vivo; settings: 0.03 mg/kg/day, subcutaneous Alzet pump, food consumption as of 2 days after start; versus solvent (50% DMSO) control group
Procedure: (5) Test Method: 3-Day Continuous Subcutaneous Administration Test-2
The food intake suppressing activity of the compound of the present invention was examined by the following method.
The test compound was dissolved in a solvent (50% DMSO) so that sustained release would occur at 0.03 mg/kg/day, and the solution was filled in the Alzet Pump (DURECT Corporation, model: 1003D). After the filling, the pump was immersed in physiological saline for priming, and then used. The pump was embedded by the following method. Each male C57BL/6J mouse at 9-10 weeks of age (25° C., allowed to take food and water ad libitum; 12-hour bright-12-hour dark cycle) was anesthetized; the skin in the upper back thereof was incised, and the above-mentioned pump was embedded subcutaneously; the incision was sutured. After weighing, this mouse was returned to the rearing cage (reared alone), and given previously weighed food; food consumption as of 2 days after the start of administration was measured. The food consumption was calculated by subtracting the amount of remaining food from the weight of the food given on the day of the start of administration. From the food consumption obtained, the food intake suppression rate (%) of each test compound was calculated using the following the formula.
A group receiving administration of the aforementioned solvent alone was the control group.
Food intake suppression rate (%): (Food consumption for control group−food consumption for test compound administration group)/food consumption for control group×100

[2] = biological target: T1, human Y2 receptor (Homo sapiens, UniProt P49146); assay: Receptor Binding Assay (RBA) for Human Y2, [125I]-PYY displacement on hY2R/CHO membrane fraction; settings: IC50 of test compound/IC50 of PYY(3-36) (PYY(3-36) taken as 1)
T1 construct: expressed in transfected cells; membrane fraction
T1 sequence (P49146 1-381): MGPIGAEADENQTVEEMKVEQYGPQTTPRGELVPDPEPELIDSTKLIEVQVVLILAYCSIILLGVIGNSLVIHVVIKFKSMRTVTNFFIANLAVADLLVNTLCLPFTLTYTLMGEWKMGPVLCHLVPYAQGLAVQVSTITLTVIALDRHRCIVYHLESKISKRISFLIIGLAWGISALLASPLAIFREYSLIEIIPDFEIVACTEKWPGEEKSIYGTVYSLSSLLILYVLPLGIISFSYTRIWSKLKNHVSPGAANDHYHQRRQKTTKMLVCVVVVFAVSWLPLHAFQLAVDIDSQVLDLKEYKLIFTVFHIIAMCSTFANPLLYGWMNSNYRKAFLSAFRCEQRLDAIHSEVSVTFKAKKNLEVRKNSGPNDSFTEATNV
Outline: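 Read-out is [125I]-PYY displacement from membranes of CHO/dhfr− cells stably transfected with human Y2R. Membranes were obtained by disrupting cells in a buffer of 10 mM NaHCO3, 5 mM EDTA and protease inhibitors.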

[3] = test system: male C57EL/6J mice; assay: 3-Days Continuous Subcutaneous Administration Test-1 (food intake suppressing activity); type: in vivo, mouse; settings: 0.03 mg/kg/day, subcutaneous Alzet pump, food consumption over 3 days; relative to food intake suppression rate for PYY(3-36) (1 mg/kg/day) taken as 100%
Outline: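 Male […] mice, 12-13 weeks, received compound at 0.03 mg/kg/day by subcutaneous osmotic pump (50% DMSO vehicle), housed singly with free food access. Food consumed over 3 days measured; suppression expressed relative to PYY(3-36) (1 mg/kg/day) set as 100%.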

[4] = biological target: T1, human Y2 receptor; assay: Human Y2 Receptor G Protein Binding Assay (GBA), [35S]GTPγS; type: biochemical; settings: EC50 of test compound/EC50 of PYY(3-36) (PYY3-36 taken as 1), hY2R/CHO membrane fraction
Outline: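 Agonism measured as [35S]GTPγS binding, read by GF/C filtration and scintillation counting after 120 min at room temperature, using human Y2 membranes at 1 μg protein/mL in pH 7.4 Tris/MgCl2/NaCl/GDP buffer. Compound serially diluted 100 μM–1 nM; EC50 normalized to PYY(3-36) (ratio = compound/PYY).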

Substance: 4-Imidazolecarbonyl-[D-Hyp24, Iva25, Pya(4)26, Cha27,36, Leu(Me)28, Har30, Aib31]-PYY(23-36) [compound No. 367]
- food intake suppression rate (%) [1]: 24.0%

Substance: 4-Imidazolecarbonyl-[D-Hyp24, Iva25, Pya(4)26, Cha27,36, Leu(Me)28, Lys(Ac)30, D-Iva31]-PYY(23-36) [compound No. 369]
- food intake suppression rate (%) [1]: 47.8%

Substance: Carbamoyl-[D-Hyp24, Iva25, Pya(4)26, Cha27,36, Leu(Me)28, Lys30, Aib31]-PYY(23-36) [compound No. 364]
- food intake suppression rate (%) [1]: 37.3%

Substance: 4-Imidazolecarbonyl-[D-Hyp24, Pya(4)26, Cha27,36, Iva28, Lys(Ac)30, D-Iva31]-PYY(23-36) [compound No. 374]
- food intake suppression rate (%) [1]: 22.6%

Substance: [D-Hyp24, Iva25, Pya(4)26, Cha27,36, Leu(Me)28, Lys(Ac)30, Aib31]-PYY(23-36) [compound No. 373]
- food intake suppression rate (%) [1]: 17.5%

Substance: Thp(4)-NHCO-[D-Hyp24, Iva25, Pya(4)26, Cha27,36, Leu(Me)28, Lys30, Aib31]-PYY(23-36) [compound No. 358]
- food intake suppression rate (%) [1]: 62.5%

Substance: 4-Imidazolecarbonyl-[D-Hyp24, Iva25, Pya(4)26, Cha27,36, Iva28, Lys30, D-Iva31]-PYY(23-36) [compound No. 372]
- food intake suppression rate (%) [1]: 27.2%

Substance: 4-Imidazolecarbonyl-[D-Hyp24, Pya(4)26, Cha27,36, Leu(Me)28, Lys30, Aib31]-PYY(23-36) [compound No. 370]
- food intake suppression rate (%) [1]: 17.9%

Substance: Thp(4)-CO-[D-Hyp24, Iva25, Pya(4)26, Cha27,36, Leu(Me)28, Lys30, Aib31]-PYY(23-36) [compound No. 361]
- food intake suppression rate (%) [1]: 23.3%

Substance: 4-Imidazolecarbonyl-[D-Hyp24, Iva25, Pya(4)26, Cha27, Leu(Me)28, Lys30, Aib31, Phe(2,6-Me2)36]-PYY(23-36) [compound No. 360]
- food intake suppression rate (%) [1]: 36.7%

Substance: (Carboxymethyl)carbamoyl-[D-Pro24, Iva25, Pya(4)26, Cha27,36, Aib28,31, Lys30]-PYY(23-36) ({(carboxymethyl)carbamoyl}-S[dP][Iva][4Pal][Cha][Aib]NK[Aib]TRQR[Cha]-NH2; SMILES CC[C@](C)(NC(=O)[C@H]1CCCN1C(=O)[C@H](CO)NC(=O)NCC(=O)O)C(=O)N[C@@H](Cc1ccncc1)C(=O)N[C@@H](CC1CCCCC1)C(=O)NC(C)(C)C(=O)N[C@@H](CC(N)=O)C(=O)N[C@@H](CCCCN)C(=O)NC(C)(C)C(=O)N[C@H](C(=O)N[C@@H](CCCNC(=N)N)C(=O)N[C@@H](CCC(N)=O)C(=O)N[C@@H](CCCNC(=N)N)C(=O)N[C@@H](CC1CCCCC1)C(N)=O)[C@@H](C)O) [compound No. 327]
- RBA IC50 Ratio [2]: 3.0
- food intake suppression rate (%) [3]: 58%
- GBA EC50 Ratio [4]: 1.6

Substance: (2-Carboxyethyl)carbamoyl-[D-Pro24, Iva25, Pya(4)26, Cha27,36, Aib28,31, Lys30]-PYY(23-36) ({(2-carboxyethyl)carbamoyl}-S[dP][Iva][4Pal][Cha][Aib]NK[Aib]TRQR[Cha]-NH2; SMILES CC[C@](C)(NC(=O)[C@H]1CCCN1C(=O)[C@H](CO)NC(=O)NCCC(=O)O)C(=O)N[C@@H](Cc1ccncc1)C(=O)N[C@@H](CC1CCCCC1)C(=O)NC(C)(C)C(=O)N[C@@H](CC(N)=O)C(=O)N[C@@H](CCCCN)C(=O)NC(C)(C)C(=O)N[C@H](C(=O)N[C@@H](CCCNC(=N)N)C(=O)N[C@@H](CCC(N)=O)C(=O)N[C@@H](CCCNC(=N)N)C(=O)N[C@@H](CC1CCCCC1)C(N)=O)[C@@H](C)O) [compound No. 341]
- RBA IC50 Ratio [2]: 3.2
- food intake suppression rate (%) [3]: 35%
- GBA EC50 Ratio [4]: 2.4

Substance: Tetrahydro-2H-pyran-4-yl-carbamoyl-[D-Pro24, Pya(4)26, Cha27,36, Aib28,31, Lys30]-PYY(23-36) (X5-S[dP]R[4Pal][Cha][Aib]NK[Aib]TRQR[Cha]-NH2; ends and bridges not checked) [compound No. 270]
- RBA IC50 Ratio [2]: 0.52
- food intake suppression rate (%) [3]: 28%
- GBA EC50 Ratio [4]: 0.61

Substance: Ac-[D-Pro24, Iva25,28, Pya(4)26, Cha27,36, Lys30, Aib31]-PYY(23-36) (Ac-S[dP][Iva][4Pal][Cha][Iva]NK[Aib]TRQR[Cha]-NH2; SMILES CC[C@](C)(NC(=O)[C@H](CC1CCCCC1)NC(=O)[C@H](Cc1ccncc1)NC(=O)[C@](C)(CC)NC(=O)[C@H]1CCCN1C(=O)[C@H](CO)NC(C)=O)C(=O)N[C@@H](CC(N)=O)C(=O)N[C@@H](CCCCN)C(=O)NC(C)(C)C(=O)N[C@H](C(=O)N[C@@H](CCCNC(=N)N)C(=O)N[C@@H](CCC(N)=O)C(=O)N[C@@H](CCCNC(=N)N)C(=O)N[C@@H](CC1CCCCC1)C(N)=O)[C@@H](C)O) [compound No. 296]
- RBA IC50 Ratio [2]: 1.1
- food intake suppression rate (%) [3]: 36%
- GBA EC50 Ratio [4]: 1.0

Substance: Ac-[D-Pro24, Iva25, Pya(4)26, Cha27,36, Aib28,31, Har30]-PYY(23-36) (Ac-S[dP][Iva][4Pal][Cha][Aib]N[hArg][Aib]TRQR[Cha]-NH2; SMILES CC[C@](C)(NC(=O)[C@H]1CCCN1C(=O)[C@H](CO)NC(C)=O)C(=O)N[C@@H](Cc1ccncc1)C(=O)N[C@@H](CC1CCCCC1)C(=O)NC(C)(C)C(=O)N[C@@H](CC(N)=O)C(=O)N[C@@H](CCCCNC(=N)N)C(=O)NC(C)(C)C(=O)N[C@H](C(=O)N[C@@H](CCCNC(=N)N)C(=O)N[C@@H](CCC(N)=O)C(=O)N[C@@H](CCCNC(=N)N)C(=O)N[C@@H](CC1CCCCC1)C(N)=O)[C@@H](C)O) [compound No. 317]
- RBA IC50 Ratio [2]: 0.65
- food intake suppression rate (%) [3]: 49%
- GBA EC50 Ratio [4]: 1.0

Substance: Morpholinocarbonyl-[D-Pro24, Pya(4)26, Cha27,36, Aib28,31, Lys30]-PYY(23-36) (morpholinocarbonyl-S[dP]R[4Pal][Cha][Aib]NK[Aib]TRQR[Cha]-NH2; SMILES C[C@@H](O)[C@H](NC(=O)C(C)(C)NC(=O)[C@H](CCCCN)NC(=O)[C@H](CC(N)=O)NC(=O)C(C)(C)NC(=O)[C@H](CC1CCCCC1)NC(=O)[C@H](Cc1ccncc1)NC(=O)[C@H](CCCNC(=N)N)NC(=O)[C@H]1CCCN1C(=O)[C@H](CO)NC(=O)N1CCOCC1)C(=O)N[C@@H](CCCNC(=N)N)C(=O)N[C@@H](CCC(N)=O)C(=O)N[C@@H](CCCNC(=N)N)C(=O)N[C@@H](CC1CCCCC1)C(N)=O) [compound No. 268]
- RBA IC50 Ratio [2]: 0.89
- food intake suppression rate (%) [3]: 16%
- GBA EC50 Ratio [4]: 0.57

Substance: [(1S)-1-carboxy-2-hydroxyethyl]carbamoyl-[D-Pro24, Pya(4)26, Cha27,36, Aib28,31, Lys30]-PYY(23-36) (X6-S[dP]R[4Pal][Cha][Aib]NK[Aib]TRQR[Cha]-NH2; SMILES C[C@@H](O)[C@H](NC(=O)C(C)(C)NC(=O)[C@H](CCCCN)NC(=O)[C@H](CC(N)=O)NC(=O)C(C)(C)NC(=O)[C@H](CC1CCCCC1)NC(=O)[C@H](Cc1ccncc1)NC(=O)[C@H](CCCNC(=N)N)NC(=O)[C@H]1CCCN1C(=O)[C@H](CO)NC(=O)N[C@@H](CO)C(=O)O)C(=O)N[C@@H](CCCNC(=N)N)C(=O)N[C@@H](CCC(N)=O)C(=O)N[C@@H](CCCNC(=N)N)C(=O)N[C@@H](CC1CCCCC1)C(N)=O) [compound No. 288]
- RBA IC50 Ratio [2]: 0.52
- food intake suppression rate (%) [3]: 28%
- GBA EC50 Ratio [4]: 1.3
